Reference: patent publication US20130165489A1, “Small Molecule Modulators of HIV-1 Capsid Stability and Methods Thereof” (The Trustees of the University of Pennsylvania, priority 2010, published 2013)
“Also recorded” adds a separate entry of the source.

Assays:
[1] = system: Vaccinia; assay: microbe, parasite or virus in culture; type: cell-based
[2] = system: HIV-1 92BR025 (subtype C clinical isolate); assay: Anti-HIV efficacy in human PBMCs, isolate 92BR025; type: cell-based
Experimental: (§1) HIV human peripheral blood mononuclear cell (PBMC) assays were performed as described previously (Lanier et al., 2010, Antimicrob. Agents Chemother. 54:2901-09; Ptak et al., 2008, Antimicrob. Agents Chemother. 52:1302-17). Briefly, fresh PBMCs, seronegative for HIV and hepatitis B virus (HBV), were isolated from blood samples of the screened donors (Biological Specialty Corporation, Colmar, Pa.) by using lymphocyte separation medium (LSM; density, 1.078±0.002 g/ml; Cellgro; Mediatech, Inc.) by following the manufacturer's instructions. Cells were stimulated by incubation in 4 μg/mL phytohemagglutinin (PHA; Sigma) for 48 to 72 h. Mitogenic stimulation was maintained by the addition of 20 U/mL recombinant human interleukin-2 (rhIL-2; R&D Systems, Inc.) to the culture medium. PHA-stimulated PBMCs from at least two donors were pooled, diluted in fresh medium, and added to 96-well plates at 5×10^4 cells/well. Cells were infected (final multiplicity of infection [MOI] of ≅0.1) in the presence of 9 different concentrations of test compounds (triplicate wells/concentration) and incubated for 7 days. […] Following removal of supernatant samples, compound cytotoxicity was measured by the addition of 3-(4,5-dimethylthiazol-2-yl)-5-(3-carboxymethoxyphenyl)-2-(4-sulfophenyl)-2H-tetrazolium (MTS; CellTiter 96 reagent; Promega) by following the manufacturer's instructions. […]

[3] = system: HIV-1 G3 (subtype G clinical isolate); assay: Anti-HIV efficacy in human PBMCs, isolate G3; type: cell-based
Experimental: as §1

[4] = in vitro; details: African green monkey
[5] = system: HIV-1 BCF02 (group O clinical isolate); assay: Anti-HIV efficacy in human PBMCs, isolate BCF02; type: cell-based
Experimental: as §1

[6] = system: HIV-1 92UG031 (subtype A clinical isolate); assay: Anti-HIV efficacy in human PBMCs, isolate 92UG031; type: cell-based
Experimental: as §1

[7] = system: HIV-1 92BR030 (subtype B clinical isolate); assay: Anti-HIV efficacy in human PBMCs, isolate 92BR030; type: cell-based
Experimental: HIV human peripheral blood mononuclear cell (PBMC) assays were performed as described previously (Lanier et al., 2010, Antimicrob. Agents Chemother. 54:2901-09; Ptak et al., 2008, Antimicrob. Agents Chemother. 52:1302-17). Briefly, fresh PBMCs, seronegative for HIV and hepatitis B virus (HBV), were isolated from blood samples of the screened donors (Biological Specialty Corporation, Colmar, Pa.) by using lymphocyte separation medium (LSM; density, 1.078±0.002 g/ml; Cellgro; Mediatech, Inc.) by following the manufacturer's instructions. Cells were stimulated by incubation in 4 μg/mL phytohemagglutinin (PHA; Sigma) for 48 to 72 h. Mitogenic stimulation was maintained by the addition of 20 U/mL recombinant human interleukin-2 (rhIL-2; R&D Systems, Inc.) to the culture medium. PHA-stimulated PBMCs from at least two donors were pooled, diluted in fresh medium, and added to 96-well plates at 5×10^4 cells/well. Cells were infected (final multiplicity of infection [MOI] of ≅0.1) in the presence of 9 different concentrations of test compounds (triplicate wells/concentration) and incubated for 7 days. To determine the level of virus inhibition, cell-free supernatant samples were collected for analysis of reverse transcriptase activity (Buckheit Jr., et al., 1991, AIDS Res. Hum. Retroviruses 7:295-302). Following removal of supernatant samples, compound cytotoxicity was measured by the addition of 3-(4,5-dimethylthiazol-2-yl)-5-(3-carboxymethoxyphenyl)-2-(4-sulfophenyl)-2H-tetrazolium (MTS; CellTiter 96 reagent; Promega) by following the manufacturer's instructions.
79:6089-6101; Jagodzinski et al., 2000, J. Clin. Microbiol. 38:1247-49; Michael et al., 1999, J. Clin. Microbiol. 37:2557-63 and Vahey et al., 1999, J. Clin. Microbiol. 37:2533-37); HIV-1 Group M isolate 931N101 (Subtype C, CCR5-tropic) from Dr. Robert Bollinger and the UNAIDS Network for HIV Isolation and Characterization (Gao et al., 1994, AIDS Res. Hum. Retroviruses 10:1359-68); HIV-1 Group M isolate CMUO8 (Subtype E, CXCR4-tropic) from Dr. Kenrad Nelson and the UNAIDS Network for HIV Isolation and Characterization (Gao et al., 1994, AIDS Res. Hum. Retroviruses 10:1359-68); HIV-1 Group M isolate G3 (Subtype G, CCR5-tropic) from Alash'le Abimiku (Abimiku et al., 1994, Aids Res. Hum. Retrovir. 10:1581-83); HIV-1 Group 0 isolate BCF02 (CCR5-tropic) from Sentob Saragosti, Françoise Brun-Vézinet, and François Simon (Loussertajaka et al., 1995, J. Virol. 69:5640-49); and SIV isolate Mac251 from Dr. Ronald Desrosiers (Daniel et al., 1985, Science 228:1201-04).

[8] = system: mutant HIV-1 CA proteins; assay: Binding site analysis via SPR, mutant CA proteins; details: alanine mutants of residues 137 and R173, 27.5 μM
Experimental: Wild-type and mutant HIV-1 CA proteins were attached to the surface by standard amine chemistry as described above. Compound CMPD-E was injected over these surfaces at a concentration of 27.5 μM at a flow rate of 50 μL min^−1, for a 2-min association phase, followed by a 5-min dissociation phase, and the response at equilibrium recorded. For comparison, and to take into account minor differences in the ligand density of the mutant surfaces, responses were normalized to the theoretical Rmax, assuming a 2:1 interaction.
Data analysis was performed using BIAEvaluation 4.0 software. The responses of a buffer injection and responses from the reference flow cell were subtracted to account for nonspecific binding. In order to obtain the equilibrium dissociation constants (KD), experimental data were fitted globally to the heterogeneous ligand model. The average parameters generated from a minimum of 4 data sets were used to define the equilibrium dissociation constants (KD1 and KD2). In the mutant CA protein studies, the average maximum response was generated from a minimum of 6 data sets and was used to define the average maximum response for compound CMPD-E binding to wild-type and mutant HIV-1 CA proteins.

[9] = system: YFV; assay: microbe, parasite or virus in culture; type: cell-based, yellow fever virus
[10] = system: H1N1; assay: CPE assay, influenza H1N1; type: cell-based
[11] = system: recombinant luciferase-expressing HIV-1 bearing the envelope glycoprotein of the HIV-1YU-2 strain; assay: Single-round infection assay, HIV-1 with YU-2 envelope on Cf2Th-CCR5 cells
[12] = system: DENV (serotypes 1-4); assay: CPE assay, Dengue serotypes 1-4; type: cell-based, Dengue virus
[13] = Human immunodeficiency virus 1, PBMC

O=C(O)c1ccc(-c2nc(-c3ccccc3)c(-c3ccccc3)[nH]2)cc1 [CMPD-E, 4-(4,5-diphenyl-1H-imidazol-2-yl)benzoic acid]
IC50 ([1]; Orthopoxvirus vaccinia): > 100 µM | effect on Vaccinia replication ([1]; up to 100 μM): no inhibitory effects | IC50 [2, 13]: 51 µM | Antiviral index (TC50/IC50) ([2]; PBMC): >1.96 | IC50 [3, 13]: 9.03 µM | Antiviral index (TC50/IC50) ([3]; PBMC): >11.1 | CC50 [4]: > 100 µM | IC50 [5, 13]: 71.3 µM | Antiviral index (TC50/IC50) ([5]; PBMC): >1.4 | IC50 [6, 13]: 93.6 µM | Antiviral index (TC50/IC50) ([6]; PBMC): >1.07 | Antiviral index (TC50/IC50) ([7]; 92BR030, PBMC): >1.46 | IC50 [7, 13]: 68.7 µM | inhibition of HIV-1 92BR030 replication in PBMCs ([7]; primary PBMCs): could inhibit | reduction of binding to mutant CA compared to wild-type CA [8]: > 2 fold | IC50 ([9]; Yellow fever virus): > 100 µM | effect on yellow fever virus replication ([9]; up to 100 μM): no inhibitory effects | IC50 ([10]; Influenza A virus, H1N1, CPE assay): > 100 µM | effect on influenza H1N1 replication ([10]; up to 100 μM): no inhibitory effects | activity in the single-round infection assay ([11]; Cf2Th-CCR5 cells, YU-2 envelope): retained the activity of the parental molecule; also recorded: retained all of the inhibitory capability of the parental compound | IC50 ([11]; Human immunodeficiency virus 1, Cf2Th-CCR5, read-out: IC50 against HIV-1 (single-round infection)): 22.5 ± 1.1 µM | anti-DENV activity [12]: no inhibitory effects; also recorded: retains none of the anti-DENV activity | IC50 ([12]; Dengue virus): > 100 µM
